Data published in article PMC6151709, “Immobilization of Moniliella spathulata R25L270 Lipase on Ionic, Hydrophobic and Covalent Supports: Functional Properties and Hydrolysis of Sardine Oil” (Molecules : A Journal of Synthetic Chemistry and Natural …, 2017).

Test system: T1, M. spathulata R25L270 lipase
T1 construct: native secreted enzyme; crude culture supernatant (Macauba cake medium), not purified here; free enzyme
Experiment: spectrophotometric release of p-nitrophenol at […] nm
Type: biochemical, Moniliella spathulata
Conditions: free enzyme, crude culture supernatant; pH 8.0, 37 °C; pNPP 0.1-1 mM; Triton X-100, gum arabic, 2-propanol in the substrate solution; read-out: Michaelis Constant KM

Km: 1920 µM
SMILES: CCCCCCCCCCCCCCCC(=O)Oc1ccc([N+](=O)[O-])cc1 [p-nitrophenylpalmitate]
